Source: patent publication US20250066388A1, “1,3,4,7-TETRAHYDRO-2H-PYRROLO[3',2':5,6]PYRIDO[2,3-B][1,4]OXAZEPINE BCL-2 INHIBITORS” (AbbVie Inc., priority 2022, published 2025)

What was measured:
[1] = target: Bcl-2 protein (Homo sapiens (Human), UniProt P10415); assay: TR-FRET binding assay, Bcl-2; conditions: F-Bak peptide probe, GST-Bcl-2
Method: (§1) Determination of the utility of compounds having Formula (I) or Formula (II) as binders to and inhibitors of anti-apoptotic Bcl-2 proteins was performed using the Time Resolved-Fluorescence Resonance Energy Transfer (TR-FRET) Assay. Tb-anti-GST antibody was purchased from Invitrogen (Catalog No. PV4216).
A Bcl-2 human encoding sequence was cloned into a pET41A vector (Novagen). The protein was expressed with E. coli. BL21(DE3)-T1R strain in OETB autoinduction medium at 30° C. for 25 hours. The cell pellets were resuspended in lysis buffer (50 mM Tris, 140 mM NaCl, 1 mM DTT, 10% Glycerol, 2 mM MgCl2, pH 7.3) and lysed with Microfluidizer. The Bcl-2 protein in clarified cell-lysate was purified with affinity chromatography (GST and Ni-NTA). The eluate was loaded onto a Superdex 75 column and further purified with a Q Sepharose column. The protein was purified on a phenyl hydrophobic interaction column and dialyzed in the storage buffer (50 mM Tris, 50 mM NaCl, 2 mM DTT, pH 7.5) and stored at −80° C.
(§2) […] of a protein (Bcl-2 or Bcl-xL)/probe/antibody mixture pre-equilibrated for one hour in assay buffer was added to each well at final concentrations listed in Table 6 below.
(§3) The samples were then mixed on a shaker for 1 minute and equilibrated for an additional 3 hours at room temperature. For each assay plate, a probe/antibody and protein/antibody/probe mixture were included as a negative and a positive control, respectively. Fluorescence was measured on the Envision (Perkin Elmer) using a 340/35 nm excitation filter and 520/525 (F-Bak) and 495/510 nm (Tb-labeled anti-GST antibody) emission filters. Inhibition constants (Ki) were determined using Wang's equation (Wang FEBS Lett. 1995, 360, 111-114). The TR-FRET assay can be performed in the presence of varying concentrations of human serum (HS) to determine apparent half maximal inhibitory concentration (IC50) after HS protein binding.
(§4) Inhibition constants were determined using Wang's equation (Wang FEBS Lett. 1995, 360:111-4).

[2] = target: Bcl-xL protein (Homo sapiens (Human), UniProt Q07817); assay: TR-FRET binding assay, Bcl-xL; conditions: F-Bak peptide probe
Chain of Bcl-xL protein (Q07817 other isoform, or with tags, fused parts or gaps): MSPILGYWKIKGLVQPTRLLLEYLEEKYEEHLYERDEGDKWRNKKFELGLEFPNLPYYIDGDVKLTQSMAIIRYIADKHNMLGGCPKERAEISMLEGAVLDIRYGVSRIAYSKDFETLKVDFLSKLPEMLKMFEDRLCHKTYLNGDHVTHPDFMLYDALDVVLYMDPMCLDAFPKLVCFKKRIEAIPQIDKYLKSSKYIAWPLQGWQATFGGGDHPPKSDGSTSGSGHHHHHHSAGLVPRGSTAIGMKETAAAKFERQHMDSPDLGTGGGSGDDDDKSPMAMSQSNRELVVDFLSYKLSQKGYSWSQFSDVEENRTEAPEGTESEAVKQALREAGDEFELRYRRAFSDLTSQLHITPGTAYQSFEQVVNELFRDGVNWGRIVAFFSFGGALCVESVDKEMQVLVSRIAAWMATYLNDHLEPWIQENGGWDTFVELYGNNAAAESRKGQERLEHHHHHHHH
Method: as §1
A human Bcl-xL encoding sequence was cloned into a pET41A vector. The protein was expressed with E. coli. BL21(DE3)-T1R strain in OETB autoinduction medium at 30° C. for 25 hours. The cell pellets were resuspended in lysis buffer (50 mM Tris, 140 mM NaCl, 1 mM DTT, 10% Glycerol, 0.1% Triton X-100, pH 7.5) and lysed with Microfluidizer. The Bcl-xL protein in clarified cell-lysate was purified with GST affinity chromatography. The eluate was dialyzed in the storage buffer (1×PBS, 10% Glycerol, 2 mM DTT, 1 mM Sodium Azide, pH 7.4) and stored at −80° C.
as §2, §3, §4

Chain of Bcl-2 protein (P10415 other isoform, or with tags, fused parts or gaps): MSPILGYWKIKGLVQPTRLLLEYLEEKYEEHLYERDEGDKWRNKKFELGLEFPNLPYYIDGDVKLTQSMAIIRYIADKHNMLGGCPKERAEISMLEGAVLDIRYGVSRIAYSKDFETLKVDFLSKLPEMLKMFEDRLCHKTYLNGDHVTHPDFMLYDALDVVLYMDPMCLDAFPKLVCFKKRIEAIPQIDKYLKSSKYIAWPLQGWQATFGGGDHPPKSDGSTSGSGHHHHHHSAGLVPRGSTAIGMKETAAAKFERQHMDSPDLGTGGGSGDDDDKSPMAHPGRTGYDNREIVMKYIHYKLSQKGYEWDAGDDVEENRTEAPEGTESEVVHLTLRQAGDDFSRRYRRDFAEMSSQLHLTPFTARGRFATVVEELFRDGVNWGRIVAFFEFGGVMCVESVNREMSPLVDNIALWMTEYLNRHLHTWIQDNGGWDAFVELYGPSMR

| Structure (SMILES) | Ki [1] | Ki [2] |
| --- | --- | --- |
| CC1(C)CC(c2ccc(Cl)cc2)=C2CN3CCN(c4ccc(C(=O)NS(=O)(=O)c5ccc(NC[C@H]6CC[C@](C)(O)CC6)c([N+](=O)[O-])c5)c(N5CCCOc6nc7[nH]ccc7cc65)c4)C[C@H]3COCCCO[C@@H]2C1 [Example 32, 4-((4aS,10aR)-14-(4-chlorophenyl)-12,12-dimethyl-1,2,4a,5,8,9,10a,11,13,15-decahydro-7H,12H-benzo[f]pyrazino[2,1-c][1,8]dioxa[4]azacycloundecin-3(4H)-yl)-2-(3,4-dihydro-2H-pyrrolo[3′,2′:5,6]pyrido[2,3-b][1,4]oxazepin-1(7H)-yl)-N-((4-((((1r,4r)-4-hydroxy-4-methylcyclohexyl)methyl)amino)-3-nitrophenyl)sulfonyl)benzamide] | 0.397 nM | 15.8 nM |
| COC1CO[C@H](CNc2ccc(S(=O)(=O)NC(=O)c3ccc(N4CCN5CC6=C(c7ccc(Cl)cc7)CC(C)(C)C[C@H]6OCCCOC[C@@H]5C4)cc3N3CCCOc4nc5[nH]ccc5cc43)cc2[N+](=O)[O-])C1 (stereo partly drawn) [Example 29, 4-((4aS,10aR)-14-(4-chlorophenyl)-12,12-dimethyl-1,2,4a,5,8,9,10a,11,13,15-decahydro-7H,12H-benzo[f]pyrazino[2,1-c][1,8]dioxa[4]azacycloundecin-3(4H)-yl)-2-(3,4-dihydro-2H-pyrrolo[3′,2′:5,6]pyrido[2,3-b][1,4]oxazepin-1(7H)-yl)-N-((4-((((2S)-4-methoxytetrahydrofuran-2-yl)methyl)amino)-3-nitrophenyl)sulfonyl)benzamide] | 2.59 nM | 22.5 nM |
| CC1(C)CC(c2ccc(Cl)cc2)=C2CN3CCN(c4ccc(C(=O)NS(=O)(=O)c5cnc(OCC6(F)CCOCC6)c(Cl)c5)c(N5CCCOc6nc7[nH]ccc7cc65)c4)C[C@H]3COCCCO[C@@H]2C1 [Example 7, N-((5-chloro-6-((4-fluorotetrahydro-2H-pyran-4-yl)methoxy)pyridin-3-yl)sulfonyl)-4-((4aS,10aR)-14-(4-chlorophenyl)-12,12-dimethyl-1,2,4a,5,8,9,10a,11,13,15-decahydro-7H,12H-benzo[f]pyrazino[2,1-c][1,8]dioxa[4]azacycloundecin-3(4H)-yl)-2-(3,4-dihydro-2H-pyrrolo[3′,2′:5,6]pyrido[2,3-b][1,4]oxazepin-1(7H)-yl)benzamide] | 0.0503 nM | > 661 nM |
| COCCO[C@H]1CC[C@H](CNc2ccc(S(=O)(=O)NC(=O)c3ccc(N4CCN5CC6=C(c7ccc(Cl)cc7)CC(C)(C)C[C@H]6OCCCOC[C@@H]5C4)cc3N3CCCOc4nc5[nH]ccc5cc43)cc2[N+](=O)[O-])OC1 [Example 35, 4-((4aS,10aR)-14-(4-chlorophenyl)-12,12-dimethyl-1,2,4a,5,8,9,10a,11,13,15-decahydro-7H,12H-benzo[f]pyrazino[2,1-c][1,8]dioxa[4]azacycloundecin-3(4H)-yl)-2-(3,4-dihydro-2H-pyrrolo[3′,2′:5,6]pyrido[2,3-b][1,4]oxazepin-1(7H)-yl)-N-((4-((((2R,5S)-5-(2-methoxyethoxy)tetrahydro-2H-pyran-2-yl)methyl)amino)-3-nitrophenyl)sulfonyl)benzamide] | 0.0891 nM | 23.1 nM |
| CC1(C)CC(c2ccc(Cl)cc2)=C2CN3CCN(c4ccc(C(=O)NS(=O)(=O)c5cnc(OC[C@]6(F)CC[C@H](N7CCOCC7)CC6)c(Cl)c5)c(N5CCCOc6nc7[nH]ccc7cc65)c4)C[C@H]3COCCCO[C@@H]2C1 [Example 11, N-((5-chloro-6-(((1r,4r)-1-fluoro-4-morpholinocyclohexyl)methoxy)pyridin-3-yl)sulfonyl)-4-((4aS,10aR)-14-(4-chlorophenyl)-12,12-dimethyl-1,2,4a,5,8,9,10a,11,13,15-decahydro-7H,12H-benzo[f]pyrazino[2,1-c][1,8]dioxa[4]azacycloundecin-3(4H)-yl)-2-(3,4-dihydro-2H-pyrrolo[3′,2′:5,6]pyrido[2,3-b][1,4]oxazepin-1(7H)-yl)benzamide] | 0.936 nM | 17.3 nM |
| CC1(C)CC(c2ccc(Cl)cc2)=C2CN3CCN(c4ccc(C(=O)NS(=O)(=O)c5ccc(NC[C@H]6C[C@@](O)(CF)C6)c([N+](=O)[O-])c5)c(N5CCCOc6nc7[nH]ccc7cc65)c4)C[C@H]3COCCCO[C@@H]2C1 [Example 8, 4-((4aS,10aR)-14-(4-chlorophenyl)-12,12-dimethyl-1,2,4a,5,8,9,10a,11,13,15-decahydro-7H,12H-benzo[f]pyrazino[2,1-c][1,8]dioxa[4]azacycloundecin-3(4H)-yl)-2-(3,4-dihydro-2H-pyrrolo[3′,2′:5,6]pyrido[2,3-b][1,4]oxazepin-1(7H)-yl)-N-((4-((((1r,3r)-3-(fluoromethyl)-3-hydroxycyclobutyl)methyl)amino)-3-nitrophenyl)sulfonyl)benzamide] | 0.448 nM | 0.125 nM |
| COCCN1CCC(F)(COc2ncc(S(=O)(=O)NC(=O)c3ccc(N4CCN5CC6=C(c7ccc(Cl)cc7)CC(C)(C)C[C@H]6OCCCOC[C@@H]5C4)cc3N3CCCOc4nc5[nH]ccc5cc43)cc2Cl)CC1 [Example 22, N-((5-chloro-6-((4-fluoro-1-(2-methoxyethyl)piperidin-4-yl)methoxy)pyridin-3-yl)sulfonyl)-4-((4aS,10aR)-14-(4-chlorophenyl)-12,12-dimethyl-1,2,4a,5,8,9,10a,11,13,15-decahydro-7H,12H-benzo[f]pyrazino[2,1-c][1,8]dioxa[4]azacycloundecin-3(4H)-yl)-2-(3,4-dihydro-2H-pyrrolo[3′,2′:5,6]pyrido[2,3-b][1,4]oxazepin-1(7H)-yl)benzamide] | 0.339 nM | 14.7 nM |
| CC1(C)CC(c2ccc(Cl)cc2)=C2CN3CCN(c4ccc(C(=O)NS(=O)(=O)c5ccc(OCC6(F)CCN(C7COC7)CC6)c(Cl)c5)c(N5CCCOc6nc7[nH]ccc7cc65)c4)C[C@H]3COCCCO[C@@H]2C1 [Example 9, N-(3-chloro-4-{[4-fluoro-1-(oxetan-3-yl)piperidin-4-yl]methoxy}benzene-1-sulfonyl)-4-[(4aS,10aR)-14-(4-chlorophenyl)-12,12-dimethyl-1,2,4a,5,8,9,11,12,13,15-decahydro-7H,10aH-pyrazino[2,1-g][1,5,8]benzodioxazacycloundecin-3(4H)-yl]-2-(3,4-dihydro-2H-pyrrolo[3′,2′:5,6]pyrido[2,3-b][1,4]oxazepin-1(7H)-yl)benzamide] | 0.267 nM | 20.6 nM |
| CC1(C)CC(c2ccc(Cl)cc2)=C2CN3CCN(c4ccc(C(=O)NS(=O)(=O)c5ccc(NC[C@H]6C[C@](O)(CF)C6)c([N+](=O)[O-])c5)c(N5CCCOc6nc7[nH]ccc7cc65)c4)C[C@H]3COCCCO[C@@H]2C1 [Example 16, 4-((4aS,10aR)-14-(4-chlorophenyl)-12,12-dimethyl-1,2,4a,5,8,9,10a,11,13,15-decahydro-7H,12H-benzo[f]pyrazino[2,1-c][1,8]dioxa[4]azacycloundecin-3(4H)-yl)-2-(3,4-dihydro-2H-pyrrolo[3′,2′:5,6]pyrido[2,3-b][1,4]oxazepin-1(7H)-yl)-N-((4-((((1s,3s)-3-(fluoromethyl)-3-hydroxycyclobutyl)methyl)amino)-3-nitrophenyl)sulfonyl)benzamide] | 0.297 nM | 15 nM |
| CC1(C)CC(c2ccc(Cl)cc2)=C2CN3CCN(c4ccc(C(=O)NS(=O)(=O)c5ccc(NC[C@@H]6CC[C@@H](O)CO6)c([N+](=O)[O-])c5)c(N5CCCOc6nc7[nH]ccc7cc65)c4)C[C@H]3COCCCO[C@@H]2C1 [Example 27, 4-((4aS,10aR)-14-(4-chlorophenyl)-12,12-dimethyl-1,2,4a,5,8,9,10a,11,13,15-decahydro-7H,12H-benzo[f]pyrazino[2,1-c][1,8]dioxa[4]azacycloundecin-3(4H)-yl)-2-(3,4-dihydro-2H-pyrrolo[3′,2′:5,6]pyrido[2,3-b][1,4]oxazepin-1(7H)-yl)-N-((4-((((2S,5R)-5-hydroxytetrahydro-2H-pyran-2-yl)methyl)amino)-3-nitrophenyl)sulfonyl)benzamide] | 1.72 nM | 7.41 nM |
